From patent EP0899270B1, “Indolylmethyl-N,N'-bisacylpiperazines as neurokinine receptor antagonists” (Solvay Pharmaceuticals GmbH, priority 1997, dated 1999)
Where two headings read alike, the source gives them in different places.

Legend:
humanen NK-1-Rezeptoren = target: T1, humanen NK-1-Rezeptoren (Homo sapiens, UniProt P25103); assay: Binding of test substances to NK-1 receptors in vitro ([3H]-Substanz P displacement, CHO cell membranes); settings: [3H]-Substanz P as ligand; membranes of CHO cells expressing human NK-1 receptor; Ki calculated from IC50; read-out: Ki-Wert für die Affinität zu humanen NK-1-Rezeptoren
T1 construct: expressed in transfected cells; host or cells: CHO cells (membrane preparation)
From the text: 1. Bestimmung des Bindungsvermögens der Testsubstanzen an NK-1-Rezeptoren in vitro.
Die Affinität der Testsubstanzen zu humanen NK-1-Rezeptoren wird in vitro gemessen. Bestimmt wird die Hemmung der Bindung des physiologischen Neurokinins (Substanz P) an Neurokinin-1-Rezeptoren.
Die Rezeptor-Bindungsstudien werden mit [^3H]-Substanz P als Ligand durchgeführt. Für den Bindungsversuch werden verschiedene Proben einer Membranpräparation von CHO-Zellen (= […] des chinesischen Hamsters, […]), die den humanen NK-1-Rezeptor exprimieren, mit einer Lösung des markierten Liganden inkubiert, wobei die Inkubationsansätze keine Testsubstanz oder Zusätze unterschiedlicher Konzentrationen an Testsubstanz enthalten. Anschließend wird in den Proben jeweils eine Trennung von gebundenem und freiem Liganden mit Hilfe einer Glasfiber-Filtration vorgenommen. Die im Filter verbleibende Fraktion wird mehrmals mit Pufferlösung gewaschen und anschließend wird die Radioaktivität der im Filter verbliebenen Fraktion mit einem Beta-Scintillationszähler gemessen. Es wird als IC50 der jeweiligen Testsubstanz diejenige Konzentration bestimmt, welche eine halbmaximale Verdrängung des gebundenen Liganden bewirkt. Aus dieser wird die entsprechende Inhibitionskonstante (Ki-Wert) der Testsubstanz berechnet. […]

[1] = system: durch Substanz P induzierter Blutdrucksenkung; assay: Substance P antagonistic effect in vivo (Substanz P induced hypotension in guinea pigs); set-up: species or system Meerschweinchen; settings: Cavia porcellus, 1 h, 50 pmol Substanz P i.v., evaluated after 60 minutes, read-out: ED50 (50%ige Hemmung der Substanz P-induzierten Blutdrucksenkung)
From the text: 4. Bestimmung der Substanz-P-antagonistischen Wirkung der Testsubstanzen in vivo.
Zum Nachweis der Substanz-P-antagonistischen Wirkung der Testsubstanzen wurde als Standardtestmodell für Substanz-P-induzierte pharmakologische Effekte die durch Substanz-P-Applikation hervorgerufene Hypotension in Meerschweinchen verwendet. Es wurde die Hemmwirkung der Testsubstanzen gegenüber durch Substanz P induzierter Blutdrucksenkung nach intravenöser (= i.v.) und intraduodenaler (= i.d.) Applikation der Testsubstanzen bestimmt.
Männlichen Meerschweinchen werden in Narkose (Ketamin 67 mg/ kg, Xylazine 13 mg/kg) jeweils ein Katheter in eine Arteria Carotis Communis und in eine Vena Jugularis implantiert. Der arterielle Katheter dient zur Blutdruckmessung. Die Messung erfolgt mit einem Statham 23d/B Druckaufnehmer. Über den venösen Zugang erfolgt die Gabe von Substanz P bzw. bei intravenöser Gabe auch die Applikation der Testsubstanz. Nach einer Äquilibrierungsphase von 20 Minuten werden 50 pmol/Tier Substanz P als Bolus i.v. appliziert. Danach erfolgt die Gabe der Testsubstanz. Bei der i.v. Untersuchung wird die Testsubstanz in Dosierungen von 0.1, 0.46 bzw. 1.0 µmol/kg einer Gruppe von jeweils 4 bis 6 Tieren intravenös appliziert. Die Kontrollgruppe erhält die entsprechende Menge einer physiologischen Kochsalzlösung. […]

NK-1-Rezeptor = target: T2, NK-1-Rezeptor (Cavia porcellus, UniProt P30547); assay: Functional NK-1 antagonism on isolated guinea pig aorta rings in vitro (inhibition of Substanz P induced tone relaxation); set-up: species or system Pirbright-White Meerschweinchen; settings: aorta rings toned with Phenylephrin, stimulated with 0,01 µmol Substanz P; read-out: IC50 (halbmaximale Hemmung der Tonusrelaxation)
T2 construct: Ringpräparaten der Aorta von Pirbright-White Meerschweinchen; from tissue; host or cells: isolated aorta rings of Pirbright-White guinea pigs
From the text: 3. Bestimmung des funktionellen NK-1-Antagonismus der Testsubstanzen an isoliertem Gewebe vom Meerschweinchen in vitro
Die NK-1-Rezeptor-antagonisierende Wirkung der Testsubstanzen wurde an isolierten, in einer oxygenierten Nährlösung gehaltenen Ringpräparaten der Aorta von Pirbright-White Meerschweinchen in vitro gemessen. Bestimmt wird die Hemmung der nach Stimulierung mit dem NK-1-Agonisten Substanz P hervorgerufenen Tonusrelaxation der Aortapräparate durch die Testsubstanzen.
Zur Messung der Kontraktion der Gefäßmuskulatur werden die Präparate an einem Haken fixiert, durch einen Faden mit einem Kraftmessungsgerät verbunden und die Kontraktionen werden jeweils an einem Schreiber registriert. Die Aortapräparate werden mit Phenylephrin tonisiert. Anschließend werden die NK-1-Rezeptoren der Präparate vor und nach der Gabe der Prüfsubstanz mit 0,01 µmol Substanz P stimuliert, wodurch eine Relaxation des Tonus herbeigeführt wird. Die Relaxationen vor und nach Gabe der Prüfsubstanz werden in Prozent quantifiziert. Als Kenngröße wird die Konzentration der halbmaximalen Hemmung (= IC50) errechnet, welche diejenige Konzentration angibt, bei der eine halbmaximale Hemmung der Tonusrelaxation eintritt.
In diesem Testmodell zeigten die in der folgenden Tabelle 2 aufgeführten Beispielsubstanzen die angegebenen IC50-Werte für die halbmaximale Hemmung : Tabelle 2: Funktioneller NK-1-Antagonismus der Testsubstanzen an isoliertem Meerschweinchen-Gewebe

humanen NK-2-Rezeptoren = target: T3, humanen NK-2-Rezeptoren (Homo sapiens, UniProt P21452); assay: Binding of test substances to NK-2 receptors in vitro (SR 48,968 displacement, CHO cell membranes); settings: SR 48,968 as ligand; membranes of CHO cells expressing human NK-2 receptor; read-out: Ki (Affinität der Testsubstanzen zu humanen NK-2-Rezeptoren)
T3 sequence (P21452 1-398): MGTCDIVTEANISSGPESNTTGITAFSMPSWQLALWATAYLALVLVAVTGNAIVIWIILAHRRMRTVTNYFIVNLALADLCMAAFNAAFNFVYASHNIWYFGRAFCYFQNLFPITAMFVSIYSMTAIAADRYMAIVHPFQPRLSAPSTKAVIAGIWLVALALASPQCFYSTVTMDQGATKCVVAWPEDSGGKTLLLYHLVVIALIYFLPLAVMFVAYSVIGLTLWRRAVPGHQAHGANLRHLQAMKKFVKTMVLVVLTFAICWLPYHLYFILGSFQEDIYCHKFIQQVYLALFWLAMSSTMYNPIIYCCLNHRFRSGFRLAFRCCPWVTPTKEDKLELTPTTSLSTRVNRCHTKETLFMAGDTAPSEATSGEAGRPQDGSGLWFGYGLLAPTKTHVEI
From the text: 2. Bestimmung des Bindungsvermögens der Testsubstanzen an NK-2-Rezeptoren in vitro
Die Affinität der Testsubstanzen zu humanen NK-2-Rezeptoren wird in vitro gemessen. Bestimmt wird die Hemmung der Bindung der Verbindung SR-48,968 an NK-2-Rezeptoren. SR-48,968 ist eine als spezifischer NK-2-Antagonist bekannte synthetisch hergestellte Verbindung.
Die Rezeptor-Bindungsstudien werden mit SR 48,968 als Ligand durchgeführt. Die Versuchsdurchführung entspricht der im pharmakologischen Test zur Bestimmung des Bindungsvermögens der Testsubstanzen an NK-1-Rezeptoren in vitro angegebenen Methode. Im Unterschied hierzu werden nunmehr aber verschiedene Proben einer Membranpräparation von CHO-Zellen verwendet, welche den humanen NK-2-Rezeptor exprimieren. In diesem Testmodell zeigten die in der folgenden Tabelle 1 aufgeführten Beispielsubstanzen die angegebenen Ki-Werte für die Affinität zu humanen NK-2-Rezeptoren: Tabelle 1: Affinität der Testsubstanzen zu humanen NK-2-Rezeptoren

T2 sequence (P30547 whole entry): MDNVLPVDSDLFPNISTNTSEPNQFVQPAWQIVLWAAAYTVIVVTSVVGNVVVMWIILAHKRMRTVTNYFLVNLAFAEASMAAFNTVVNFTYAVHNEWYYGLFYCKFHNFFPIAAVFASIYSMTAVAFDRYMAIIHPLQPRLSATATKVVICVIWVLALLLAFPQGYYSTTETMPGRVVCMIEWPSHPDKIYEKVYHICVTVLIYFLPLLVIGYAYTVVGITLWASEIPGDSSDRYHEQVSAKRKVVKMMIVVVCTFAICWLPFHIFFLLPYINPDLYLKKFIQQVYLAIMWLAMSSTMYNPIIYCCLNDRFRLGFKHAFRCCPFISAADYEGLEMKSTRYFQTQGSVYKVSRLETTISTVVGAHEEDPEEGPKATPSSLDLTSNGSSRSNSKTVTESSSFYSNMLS
T1 sequence (P25103 whole entry): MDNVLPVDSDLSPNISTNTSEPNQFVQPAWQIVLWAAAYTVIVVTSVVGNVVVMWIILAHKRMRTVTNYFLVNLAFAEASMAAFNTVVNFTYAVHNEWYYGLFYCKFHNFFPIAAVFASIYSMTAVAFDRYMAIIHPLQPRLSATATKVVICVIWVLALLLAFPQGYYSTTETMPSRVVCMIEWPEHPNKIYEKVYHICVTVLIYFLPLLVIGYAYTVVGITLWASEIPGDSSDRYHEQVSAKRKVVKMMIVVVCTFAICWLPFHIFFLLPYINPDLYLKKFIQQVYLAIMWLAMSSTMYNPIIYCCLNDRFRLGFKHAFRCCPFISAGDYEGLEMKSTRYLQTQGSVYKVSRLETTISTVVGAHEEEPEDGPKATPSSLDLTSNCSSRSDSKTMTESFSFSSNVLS

IC50 (NK-1-Rezeptor)	Ki (humanen NK-2-Rezeptoren)	Structure (SMILES)	Ki (humanen NK-1-Rezeptoren)	ED50 ([1]; i.d.-Applikation)	ED50 ([1]; iv, i.v.-Applikation)
1.2 nM	50 nM	COc1ccccc1CN(C)CCNC(=O)N1CCN(C(=O)c2cc(C(F)(F)F)cc(C(F)(F)F)c2)C(Cc2c[nH]c3ccccc23)C1 (stereo not drawn) [Beispiel 2]			
1.5 nM	300 nM	O=C(NCCNCc1ccc(F)cc1)N1CCN(C(=O)c2cc(C(F)(F)F)cc(C(F)(F)F)c2)C(Cc2c[nH]c3ccccc23)C1 (stereo not drawn) [Beispiel 3]			

Structure (SMILES)	IC50 (NK-1-Rezeptor)	Ki (humanen NK-2-Rezeptoren)	Ki (humanen NK-1-Rezeptoren)	ED50 ([1]; i.d.-Applikation)	ED50 ([1]; iv, i.v.-Applikation)
COc1ccccc1CNCCNC(=O)N1CCN(C(=O)c2cc(C(F)(F)F)cc(C(F)(F)F)c2)[C@H](Cc2c[nH]c3ccccc23)C1 [Beispiel 1, (2R)-1-[3,5-Bis(trifluormethyl)benzoyl]-2-(1H-indol-3-ylmethyl)-4-(2-[N-(2-methoxybenzyl)aminoethyl]aminocarbonyl}piperazin]	1 nM	60 nM	2.1 nM	0.08 µmol/kg	0.2 µmol/kg
